From patent publication EP4775574A1, “FURAN RING-CONTAINING COMPOUND, PHARMACEUTICAL COMPOSITION THEREOF, AND USE THEREOF” (Wuhan Xirui Pharmaceutical Technology Co., Ltd, priority 2023, dated 2025) come the findings set out here.

SMILES strings stand for the structures. Like-named read-outs stand apart in the source and are kept apart here.

The assay has as its target T1, Nav1.8 sodium channel (Homo sapiens, UniProt Q9Y5Y9).
T1 construct: host or cells: CHO
Description: Blocking activity against sodium channel 1.8 (Nav1.8), whole-cell patch-clamp, inhibition rate. It counts as cell-based. The procedure:
Experimental objective: The effects of the compounds on the current of the voltage-gated sodium channel (NaV) 1.8 subtype were detected by patch-clamp technique • 2. […] When the cells were detached from the bottom of the dish, about 5 mL of preheated complete medium at 37°C was added. The cell suspension was gently pipetted up and down to separate the aggregated cells. The cell suspension was transferred to a sterile centrifuge tube and centrifuged at 1000 rpm for 5 min to collect the cells. […] First, the voltage was stepped from -130 mV to -10 mV in 10 mV increments for 5 s, and then a 0 mV depolarizing pulse was applied to obtain the half-inactivation voltage (Vhalf). The resting state and half-inactivated state of the sodium current were detected by using a double-pulse protocol. First, the first depolarizing pulse (TP1) was applied to 0 mV for 50 ms to detect the sodium current in the resting state. Then, the voltage was adjusted to Vhalf and maintained for 5 s, followed by restoration of the voltage to -120 mV and maintenance for 20 ms, after which the second depolarizing pulse (TP2) was applied to 0 mV for 50 ms to detect the sodium current in the half-inactivated state. Finally, the voltage was restored to the clamping voltage of -120 mV. Data were repeatedly collected every […] to observe the effect of the drug on the peak values of sodium currents in the two different states. Experimental data were collected by the EPC 10 amplifier (HEKA) and stored in the PatchMaster (HEKA) software. • (2) During patch clamp operation, capillary glass tubes were first pulled into recording electrodes using a microelectrode puller, then the electrodes filled with intracellular solution were installed into the microelectrode holder. Under an inverted microscope, the micromanipulator was used to bring the recording electrode into contact with the cell, and negative pressure suction was applied to form a GΩ seal. At this time, fast capacitance compensation was performed, and then negative pressure was continuously applied to rupture the cell membrane and form the whole-cell recording mode. Finally, slow capacitance compensation was performed, and related parameters were recorded. Leak compensation was not applied. • (3) When the sodium current of whole-cell recording became stable, drug administration was started, and each drug concentration was applied for 5 min (or until the current became stable) before the next concentration was tested. The coverslip coated with cells was placed in the recording bath under an inverted microscope, and the blank control external solution and the test compound working solution were perfused through the recording bath in sequence from low concentration to high concentration by gravity, thereby acting on the cells, while a peristaltic pump was used for liquid exchange during recording. The current detected in the external solution without compounds for each cell was used as its own control group. Each concentration was independently tested twice. All electrophysiological experiments were conducted at room temperature.
First, the current after the effect of each drug concentration and the blank control current were normalized, then the inhibition rate corresponding to each drug concentration was calculated, that is, (1-Icompound /Icontrol), and the mean, standard deviation (SD), and standard error (SE) of the inhibition rate for each concentration were calculated, and the data were expressed as mean ± SE.
For orientation: The patch-clamp technique gives a direct electrical read-out from membranes.

Setting [1] is: CHO cell line stably expressing Nav1.8, patch-clamp, test concentration not given.

T1 sequence (Q9Y5Y9 whole entry): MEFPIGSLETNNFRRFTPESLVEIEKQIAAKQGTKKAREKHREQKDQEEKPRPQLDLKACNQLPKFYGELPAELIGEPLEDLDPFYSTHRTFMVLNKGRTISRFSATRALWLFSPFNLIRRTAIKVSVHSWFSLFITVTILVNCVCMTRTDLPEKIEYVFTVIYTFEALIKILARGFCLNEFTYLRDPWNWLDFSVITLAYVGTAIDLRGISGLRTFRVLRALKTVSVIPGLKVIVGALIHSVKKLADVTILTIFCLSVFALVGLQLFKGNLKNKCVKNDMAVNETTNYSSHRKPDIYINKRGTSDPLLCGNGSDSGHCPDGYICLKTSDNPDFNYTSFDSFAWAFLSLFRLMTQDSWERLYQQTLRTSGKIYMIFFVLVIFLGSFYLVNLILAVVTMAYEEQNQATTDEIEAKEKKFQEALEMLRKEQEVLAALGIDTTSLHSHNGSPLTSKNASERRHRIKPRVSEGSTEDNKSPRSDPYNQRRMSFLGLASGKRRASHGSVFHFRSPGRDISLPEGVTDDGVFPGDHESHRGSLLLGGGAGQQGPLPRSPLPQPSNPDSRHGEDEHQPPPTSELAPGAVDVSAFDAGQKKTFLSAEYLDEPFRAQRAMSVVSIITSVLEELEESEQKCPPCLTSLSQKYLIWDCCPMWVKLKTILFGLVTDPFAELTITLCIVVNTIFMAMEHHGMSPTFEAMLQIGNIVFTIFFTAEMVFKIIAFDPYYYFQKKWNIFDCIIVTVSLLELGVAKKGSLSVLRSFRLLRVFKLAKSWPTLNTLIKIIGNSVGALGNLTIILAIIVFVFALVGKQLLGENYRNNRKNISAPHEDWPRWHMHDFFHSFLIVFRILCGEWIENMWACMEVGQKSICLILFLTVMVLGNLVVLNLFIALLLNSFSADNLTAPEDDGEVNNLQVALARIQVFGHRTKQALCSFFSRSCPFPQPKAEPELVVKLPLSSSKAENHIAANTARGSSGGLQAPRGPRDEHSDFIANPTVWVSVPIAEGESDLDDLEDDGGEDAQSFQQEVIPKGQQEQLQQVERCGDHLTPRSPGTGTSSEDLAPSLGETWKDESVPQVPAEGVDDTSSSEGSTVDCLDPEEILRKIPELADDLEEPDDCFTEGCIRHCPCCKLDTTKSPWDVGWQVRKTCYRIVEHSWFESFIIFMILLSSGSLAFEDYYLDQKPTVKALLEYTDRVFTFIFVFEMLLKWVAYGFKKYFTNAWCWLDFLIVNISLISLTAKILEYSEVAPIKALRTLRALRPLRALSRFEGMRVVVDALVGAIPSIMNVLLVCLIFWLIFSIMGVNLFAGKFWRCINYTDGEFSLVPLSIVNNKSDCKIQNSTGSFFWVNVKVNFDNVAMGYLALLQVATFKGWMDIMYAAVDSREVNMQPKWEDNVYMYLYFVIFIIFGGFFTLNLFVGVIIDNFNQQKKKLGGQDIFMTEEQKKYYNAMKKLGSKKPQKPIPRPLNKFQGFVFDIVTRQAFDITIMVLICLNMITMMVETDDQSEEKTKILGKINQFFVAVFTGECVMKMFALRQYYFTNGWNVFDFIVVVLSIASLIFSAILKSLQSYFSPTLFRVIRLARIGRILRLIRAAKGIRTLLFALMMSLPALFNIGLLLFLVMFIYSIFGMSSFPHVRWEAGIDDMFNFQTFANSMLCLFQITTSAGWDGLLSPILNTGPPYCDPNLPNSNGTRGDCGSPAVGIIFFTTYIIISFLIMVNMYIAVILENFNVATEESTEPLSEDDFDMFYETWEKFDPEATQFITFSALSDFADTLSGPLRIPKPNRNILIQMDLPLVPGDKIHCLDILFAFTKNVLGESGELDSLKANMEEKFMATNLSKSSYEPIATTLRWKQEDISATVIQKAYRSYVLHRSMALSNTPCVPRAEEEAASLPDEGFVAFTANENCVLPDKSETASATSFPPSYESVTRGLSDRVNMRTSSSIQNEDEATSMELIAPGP

`CONC(=O)c1cc(NC(=O)[C@@H]2O[C@@](C)(C(F)(F)F)[C@@H](C)[C@H]2c2ccc(F)c(F)c2OC)ccn1` [Example 1]: the “Inhibition rate (%)” value under setting [1] is 80.08%.
With `CCONC(=O)c1cc(NC(=O)[C@@H]2O[C@@](C)(C(F)(F)F)[C@@H](C)[C@H]2c2ccc(F)c(F)c2OC)ccn1` [Example 2], the “Inhibition rate (%)” value was found to be 76.36%.
Regarding `COc1c([C@H]2[C@H](C(=O)Nc3ccnc(C(=O)NN)c3)O[C@@](C)(C(F)(F)F)[C@H]2C)ccc(F)c1F` [Example 5], the “Inhibition rate (%)” value came out at 50.04%.
For `CNNC(=O)c1cc(NC(=O)[C@@H]2O[C@@](C)(C(F)(F)F)[C@@H](C)[C@H]2c2ccc(F)c(F)c2OC)ccn1` [Example 6], the “Inhibition rate (%)” value under setting [1] was determined as 71.63%.
In the case of `COc1c([C@H]2[C@H](C(=O)Nc3cc[n+]([O-])c(C(=N)NO)c3)O[C@@](C)(C(F)(F)F)[C@H]2C)ccc(F)c1F` [Example 8], the “Inhibition rate (%)” value was 90.96%.
Still for that read-out and setting: the result for `COc1c([C@H]2[C@H](C(=O)Nc3ccc(F)c(C(=O)NO)c3)O[C@@](C)(C(F)(F)F)[C@H]2C)ccc(F)c1F` [Example 9] reads 97.24%; that for `COc1c([C@H]2[C@H](C(=O)Nc3ccc(C(F)(F)F)c(C(=N)NO)c3)O[C@@](C)(C(F)(F)F)[C@H]2C)ccc(F)c1F` [Example 12], 76.58%.
Regarding `COc1c([C@H]2[C@H](C(=O)Nc3cc(F)c(F)c(C(=N)NO)c3)O[C@@](C)(C(F)(F)F)[C@H]2C)ccc(F)c1F` [Example 13], the “Inhibition rate (%)” value is 89.85%.
`COc1c([C@H]2[C@H](C(=O)Nc3cc(C(=N)NO)c(F)cc3F)O[C@@](C)(C(F)(F)F)[C@H]2C)ccc(F)c1F` [Example 14]: the “Inhibition rate (%)” value amounted to 84.01%.
In the case of `COc1c([C@H]2[C@H](C(=O)Nc3ccc(F)c(C(=N)NO)c3F)O[C@@](C)(C(F)(F)F)[C@H]2C)ccc(F)c1F` [Example 15], the “Inhibition rate (%)” value came to 56.23%.
The same measure, in the same setting: the result for `COc1c(C2C(C(=O)Nc3ccc(F)c(C(=N)NC#N)c3)OC(C)(C(F)(F)F)C2C)ccc(F)c1F` (centres unmarked) [Example 16] reads 95.94%.
